We go through 23 compounds from US10952436B2, “Microbiocidal quinoline (thio)carboxamide derivatives” (SYNGENTA PARTICIPATIONS AG, priority 2017, dated 2021).

Series [1] deals with Glomerella lagenarium (Colletotrichum lagenarium). Nature of the series: Glomerella lagenarium (Colletotrichum lagenarium)/Liquid Culture (Anthracnose). The format is cell-based. As to conditions: Colletotrichum orbiculare; 200 ppm; liquid culture, compared to untreated control, 3-4 days after application; read-out: control of Glomerella lagenarium.
The test system of series [2] is Fusarium culmorum. Nature of the series: microbe, parasite or virus in culture. The format is cell-based. As to conditions: read-out: control of Fusarium culmorum.
Series [3] deals with Botryotinia fuckeliana (Botrytis cinerea). As to the kind of experiment: Botryotinia fuckeliana (Botrytis cinerea)/Liquid Culture (Gray Mould). The format is cell-based. The conditions noted are these: 200 ppm, liquid culture, compared to untreated control, 3-4 days after application, read-out: control of Botryotinia fuckeliana.
The subject of series [4] is Fusarium culmorum. Nature of the series: whole plant or invertebrate. The format is in vivo. The conditions noted are these: in Triticum aestivum, read-out: control of Fusarium culmorum.
For series [5], the system named is Monographella nivalis (Microdochium nivale). Nature of the series: Monographella nivalis (Microdochium nivale)/Liquid Culture (Foot Rot Cereals). The conditions noted are these: 200 ppm, liquid culture, compared to untreated control, 4-5 days after application, read-out: control of Monographella nivalis. The format is cell-based.
Series [6] concerns Magnaporthe grisea (Pyricularia oryzae). As to the kind of experiment: microbe, parasite or virus in culture. The format is cell-based. As to conditions: read-out: control of Magnaporthe grisea.

Take `Cc1nc2c(F)cccc2cc1NC(=O)C(Cc1ccccc1)CC1(C)CC1` (centres unmarked): the melting point (commonly the temperature, or range, at which the solid turns liquid) lay within 162 to 163 °C.
On the same count and under the same terms, to `Cc1c(NC(=O)C(Cc2ccccc2)CC2(C)CC2)cnc2c(F)cccc12` (centres unmarked) belongs 144 to 146 °C; to `CC1(CC(Cc2ccccc2)C(=O)Nc2cnc3c(F)cccc3c2)CC1` (centres unmarked), 135 to 136 °C.
Compound `C=C(Cl)CC(Cc1ccccc1)C(=O)Nc1cc2cccc(F)c2nc1C` (centres unmarked) [Compound E-4, 2-benzyl-4-chloro-N-(8-fluoro-2-methyl-3-quinolyl)pent-4-enamide] returned a melting point of 96 to 99 °C. In addition, the inhibition of growth at 200 ppm in series [1] was at least 80%. The inhibition of growth at 200 ppm in the series with Fusarium culmorum [2] was at least 80%. Moreover, the inhibition of growth at 200 ppm in series [3] is at least 80%.
As to `C=C(Cl)CC(Cc1ccccc1)C(=O)Nc1cnc2c(F)cccc2c1C` (centres unmarked) [Compound E-5, 2-benzyl-4-chloro-N-(8-fluoro-4-methyl-3-quinolyl)pent-4-enamide], the melting point was in the range of 53 to 58 °C. The inhibition of growth at 200 ppm in series [1] was at least 80%. In addition, the inhibition of growth at 200 ppm with Fusarium culmorum [2] was at least 80%. Further, in the series with Fusarium culmorum [4], the pest or weed control at 200 ppm was at least 80%. Moreover, the inhibition of growth at 200 ppm in series [5] was at least 80%. The inhibition of growth at 200 ppm in series [3] was at least 80%.
For `CC(C)CC(C)(Cc1ccccc1)C(=O)Nc1cnc2c(Cl)cccc2c1` (centres unmarked) [Compound E-9, 2-benzyl-N-(8-chloro-3-quinolyl)-2,4-dimethyl-pentanamide], the melting point is 163 to 165 °C. For the same compound, the inhibition of growth at 200 ppm in series [1] was at least 80%. The inhibition of growth at 200 ppm in the series on Fusarium culmorum [2] is at least 80%. For the same compound, the inhibition of growth at 200 ppm in series [5] is at least 80%. The inhibition of growth at 200 ppm in series [3] was at least 80%. Also, the inhibition of growth at 200 ppm in series [6] is at least 80%.
The compound `CC(Cc1ccccc1)C(=O)Nc1cnc2c(F)cccc2c1` (centres unmarked) [Compound E-31, N-(8-fluoro-3-quinolyl)-2-methyl-3-phenyl-propanamide] returned a melting point of 188 to 190 °C. Also, in series [1], the inhibition of growth at 200 ppm was at least 80%. Further, the inhibition of growth at 200 ppm in the series with Fusarium culmorum [2] was at least 80%. Also, the inhibition of growth at 200 ppm in series [3] was at least 80%. Moreover, in series [6], the inhibition of growth at 200 ppm is at least 80%.
Compound `COCN(C(=O)C(C)(Cc1ccccc1)CC(F)(F)F)c1cnc2c(F)cccc2c1` (centres unmarked) [Compound E-33, 2-benzyl-4,4,4-trifluoro-N-(8-fluoro-3-quinolyl)-N-(methoxymethyl)-2-methyl-butanamide] displayed a melting point of 108 to 110 °C. For the same compound, the inhibition of growth at 200 ppm in series [1] was at least 80%. Also, the inhibition of growth at 200 ppm in the series with Fusarium culmorum [2] was at least 80%. Besides, in series [3], the inhibition of growth at 200 ppm was at least 80%. Moreover, the inhibition of growth at 200 ppm in series [6] is at least 80%.
`COC(Cc1ccccc1)(CC(C)C)C(=O)Nc1cnc2c(F)cccc2c1` (centres unmarked) [Compound E-38, 2-benzyl-N-(8-fluoro-3-quinolyl)-2-methoxy-4-methyl-pentanamide] yielded a melting point of 133 to 135 °C. Also, in series [1], the inhibition of growth at 200 ppm is at least 80%. The inhibition of growth at 200 ppm in the series on Fusarium culmorum [2] was at least 80%. In addition, in the series with Fusarium culmorum [4], the pest or weed control at 200 ppm was at least 80%. Also, the inhibition of growth at 200 ppm in series [3] is at least 80%. Further, in series [6], the inhibition of growth at 200 ppm was at least 80%.
Turning to `CN(C(=O)C(C)(Cc1ccccc1)CC(F)(F)F)c1cnc2c(F)cccc2c1` (centres unmarked) [Compound E-42, 2-benzyl-4,4,4-trifluoro-N-(8-fluoro-3-quinolyl)-N,2-dimethyl-butanamide], the melting point was 137 to 139 °C. Also, the inhibition of growth at 200 ppm in series [1] was at least 80%. Also, the inhibition of growth at 200 ppm in the series with Fusarium culmorum [2] is at least 80%. Also, the inhibition of growth at 200 ppm in series [3] is at least 80%. The inhibition of growth at 200 ppm in series [6] is at least 80%.
In turn, `CC(C)=CC(C)(Cc1ccccc1)C(=O)Nc1cnc2c(F)cccc2c1` (centres unmarked) [Compound E-48, 2-benzyl-N-(8-fluoro-3-quinolyl)-2,4-dimethyl-pent-3-enamide] had a melting point of 167 to 169 °C. Besides, the inhibition of growth at 200 ppm in series [1] was at least 80%. Besides, in the series on Fusarium culmorum [2], the inhibition of growth at 200 ppm was at least 80%. Besides, the pest or weed control at 200 ppm in the series with Fusarium culmorum [4] is at least 80%. In addition, the inhibition of growth at 200 ppm in series [3] is at least 80%. Also, the inhibition of growth at 200 ppm in series [6] is at least 80%.
As for `CC(Cc1ccccc1)(CC(F)(F)F)C(=O)Nc1cnc2cccc(F)c2c1` (centres unmarked) [Compound E-49, 2-benzyl-4,4,4-trifluoro-N-(5-fluoro-3-quinolyl)-2-methyl-butanamide], the melting point was in the range of 140 to 142 °C. Also, the inhibition of growth at 200 ppm in the series with Fusarium culmorum [2] was at least 80%. Moreover, the inhibition of growth at 200 ppm in series [3] is at least 80%. The inhibition of growth at 200 ppm in series [6] is at least 80%.
In turn, `CC(Cc1ccccc1)(CC(F)(F)F)C(=O)Nc1cnc2cc(F)ccc2c1` (centres unmarked) [Compound E-52, 2-benzyl-4,4,4-trifluoro-N-(7-fluoro-3-quinolyl)-2-methyl-butanamide] displayed a melting point of 180 to 182 °C. For the same compound, the inhibition of growth at 200 ppm in series [1] is at least 80%. Besides, the inhibition of growth at 200 ppm with Fusarium culmorum [2] was at least 80%. The inhibition of growth at 200 ppm in series [5] is at least 80%. The inhibition of growth at 200 ppm in series [3] was at least 80%. Besides, the inhibition of growth at 200 ppm in series [6] was at least 80%.
Regarding `C=C(CC)CC(C)(Cc1ccccc1)C(=O)Nc1cnc2c(F)cccc2c1` (centres unmarked) [Compound E-54, 2-benzyl-N-(8-fluoro-3-quinolyl)-2-methyl-4-methylene-hexanamide], the melting point fell in the range of 118 to 120 °C. The inhibition of growth at 200 ppm in series [1] was at least 80%. Further, the inhibition of growth at 200 ppm in the series on Fusarium culmorum [2] was at least 80%. In series [3], the inhibition of growth at 200 ppm is at least 80%. In addition, the inhibition of growth at 200 ppm in series [6] is at least 80%.
As to `CC(C=C(F)F)(Cc1ccccc1)C(=O)Nc1cnc2c(F)cccc2c1` (centres unmarked) [Compound E-57, 2-benzyl-4,4-difluoro-N-(8-fluoro-3-quinolyl)-2-methyl-but-3-enamide], the inhibition of growth at 200 ppm (in series [1]; in the series with Fusarium culmorum [2]; in series [5]; in series [3]; in series [6]) was at least 80% in each case. Moreover, the pest or weed control at 200 ppm in the series on Fusarium culmorum [4] was at least 80%.
`C=C(C)CC(C)(Cc1ccccc1)C(=O)Nc1cnc2c(Br)cccc2c1` (centres unmarked) [Compound E-63, 2-benzyl-N-(8-bromo-3-quinolyl)-2,4-dimethyl-pent-4-enamide] registered a melting point of 165 to 169 °C. Further, in the series on Fusarium culmorum [2], the inhibition of growth at 200 ppm was at least 80%. Besides, the pest or weed control at 200 ppm in the series with Fusarium culmorum [4] was at least 80%. Further, the inhibition of growth at 200 ppm in series [3] was at least 80%. For the same compound, the inhibition of growth at 200 ppm in series [6] was at least 80%.
With `C=C(C)CC(C)(Cc1ccccc1)C(=O)Nc1cnc2ccccc2c1` (centres unmarked) [Compound E-64, 2-benzyl-2,4-dimethyl-N-(3-quinolyl)pent-4-enamide], the inhibition of growth at 200 ppm (in series [1]; in the series on Fusarium culmorum [2]; in series [5]; in series [3]; in series [6]) was at least 80% throughout. The pest or weed control at 200 ppm in the series with Fusarium culmorum [4] was at least 80%.
The compound `C=CCC(C)(Cc1ccccc1)C(=O)Nc1cnc2c(F)cccc2c1` (centres unmarked) [Compound E-78, 2-benzyl-N-(8-fluoro-3-quinolyl)-2-methyl-pent-4-enamide] had a melting point of 146 to 149 °C. Also, the inhibition of growth at 200 ppm in series [1] was at least 80%. Further, the inhibition of growth at 200 ppm with Fusarium culmorum [2] is at least 80%. Besides, the pest or weed control at 200 ppm in the series on Fusarium culmorum [4] is at least 80%. Further, the inhibition of growth at 200 ppm in series [5] is at least 80%. Besides, the inhibition of growth at 200 ppm in series [3] is at least 80%.
In the case of `Cc1c(NC(=O)C(C)(Cc2ccccc2)CC(C)C)cnc2c(F)cccc12` (centres unmarked) [Compound E-84, 2-benzyl-N-(8-fluoro-4-methyl-3-quinolyl)-2,4-dimethyl-pentanamide], the melting point lay in the range of 73 to 79 °C. Besides, in series [1], the inhibition of growth at 200 ppm is at least 80%. For the same compound, the inhibition of growth at 200 ppm in the series with Fusarium culmorum [2] was at least 80%. The pest or weed control at 200 ppm in the series with Fusarium culmorum [4] is at least 80%. In series [5], the inhibition of growth at 200 ppm was at least 80%. In addition, in series [3], the inhibition of growth at 200 ppm is at least 80%.
As to `CC(C)(C)C(Cc1ccccc1)C(=O)Nc1cnc2c(F)cccc2c1` (centres unmarked) [Compound E-88, 2-benzyl-N-(8-fluoro-3-quinolyl)-3,3-dimethyl-butanamide], the melting point lay within 212 to 215 °C. Besides, the inhibition of growth at 200 ppm in the series on Fusarium culmorum [2] was at least 80%. In addition, the pest or weed control at 200 ppm in the series on Fusarium culmorum [4] was at least 80%. The inhibition of growth at 200 ppm in series [3] was at least 80%. Further, the inhibition of growth at 200 ppm in series [6] was at least 80%.
In turn, `C=C(C)CC(Cc1ccccc1)C(=O)Nc1cc2cccc(F)c2nc1C` (centres unmarked) [Compound E-92, 2-benzyl-N-(8-fluoro-2-methyl-3-quinolyl)-4-methyl-pent-4-enamide] returned a melting point of 97 to 99 °C. In addition, in series [1], the inhibition of growth at 200 ppm was at least 80%. Also, the inhibition of growth at 200 ppm in the series on Fusarium culmorum [2] is at least 80%. For the same compound, in the series on Fusarium culmorum [4], the pest or weed control at 200 ppm was at least 80%. Besides, in series [3], the inhibition of growth at 200 ppm is at least 80%.
Consider `C=C(C)CC(Cc1ccccc1)C(=O)Nc1cnc2c(F)cccc2c1` (centres unmarked) [Compound E-94, 2-benzyl-N-(8-fluoro-3-quinolyl)-4-methyl-pent-4-enamide], for which the melting point lay in the range of 170 to 172 °C. Further, in series [1], the inhibition of growth at 200 ppm is at least 80%. In addition, the inhibition of growth at 200 ppm with Fusarium culmorum [2] is at least 80%. Also, the inhibition of growth at 200 ppm in series [5] was at least 80%. The inhibition of growth at 200 ppm in series [3] was at least 80%.
As for `C=C(C)C[C@](C)(Cc1ccccc1)C(=O)Nc1cnc2c(F)cccc2c1` [Compound F-22, (2R)-2-benzyl-N-(8-fluoro-3-quinolyl)-2,4-dimethyl-pent-4-enamide], the melting point was in the range of 133 to 135 °C. The inhibition of growth at 200 ppm in series [1] was at least 80%. Moreover, the inhibition of growth at 200 ppm in the series with Fusarium culmorum [2] was at least 80%. In series [5], the inhibition of growth at 200 ppm was at least 80%. For the same compound, the inhibition of growth at 200 ppm in series [3] is at least 80%.
